In EP0431659B1, “Pharmaceutical compositions of tebufelone” (THE PROCTER & GAMBLE COMPANY, priority 1989, dated 1991):

Columns and labels:
[1] = absorption from the gastrointestinal tract after peroral dosing; format: in vivo; conditions: dosed in conventional solid dosage forms, such as tablets or powders in capsules
[2] = water solubility of tebufelone; format: physicochemical; conditions: water (essentially water-insoluble)

Structure (SMILES): C#CCCCC(=O)c1cc(C(C)(C)C)c(O)c(C(C)(C)C)c1 [tebufelone, 1-[3,5-bis(1,1-dimethylethyl)-4-hydroxyphenyl]-5-hexyn-1-one]
- absorption of tebufelone from the gastrointestinal tract [1]: quite low
- solubility [2]: < 1 µg/mL
